US12122787B2, “Fused pyridone compound, and preparation method therefor and use thereof” (SHANGHAI JEMINCARE PHARMACEUTICALS CO., LTD, priority 2019, dated 2024)
Read-outs that look alike come from different tables or passages of the source.

Assays:
Type in all cases: cell-based
[1] = system: MIA PaCa2 cells expressing KRAS-G12C; assay: Growth inhibition of tumor cell line expressing KRAS-G12C (Cell Titer Glo), MIA PaCa2; settings: MIA-Paca2, 72 hours
Method: (§1) The ability of the compounds of the present disclosure to inhibit the growth of cells expressing KRAS-G12C was evaluated by measuring the cell viability and calculating the GI50 values.
(§2) The tumor cell line NCI-H358 (ATCC catalogue number CRL-5807) expressing KRAS-G12C was cultured in RPMI medium supplemented with 10% fetal bovine serum and penicillin/streptomycin, and the tumor cell line MIA PaCa2 (ATCC CRL-1420) expressing KRAS-G12C was cultured in DMEM medium supplemented with 10% fetal bovine serum, 2.5% horse serum, and penicillin/streptomycin.
(§3) Cells NCI-H358 and MIA-Paca2 were inoculated into black transparent bottom 384-well plate (PerkinElmer catalogue number 6007460) with cell density of 1000 and 800 respectively, and the cells were allowed to adhere to the wall overnight (8-12 hours). After the cells adhered to the wall, the experimental group was added with the compound of the present disclosure diluted 5 times the concentration of the working solution (final concentration containing 0.1% dimethyl sulfoxide, i.e. DMSO); the control group was added with the same dilution as the experimental group (final concentration containing 0.1% DMSO). After 72 hours, Cell Titer Glo reagent (Promega catalogue number G7572) was used to detect ATP content according to the instruction method to determine the amount of cell proliferation. The brief operation steps were as follows: the cell plate was taken out and kept at normal temperature for equilibrium for 30 minutes; Cell Titer Glo reagent with the same volume as the culture was added; the culture plate was placed on a shaker for shaking and cracking for 2 minutes; the culture plate was left to stand at room temperature for 10 minutes; then the light signal value was read by microplate reader EnVision (PerkinElmer).
(§4) Data from all experimental groups were used to calculate the respective percent inhibition using the DMSO group, and the GI50 was calculated using the data processing software GraphPad to analyze the inhibition rates produced by the 9 compound dose concentrations diluted at ⅓-fold ratio.

[2] = system: NCI-H358 cells expressing KRAS-G12C; assay: Growth inhibition of tumor cell line expressing KRAS-G12C (Cell Titer Glo), NCI-H358; settings: NCI-H358, 72 hours
Method: as §1, §2, §3, §4

[3] = system: phosphorylated ERK (Thr202/Tyr204) in NCI-H358 cells expressing mutant RAS(G12C); assay: Inhibition of RAS-mediated signal transduction: phosphorylated ERK ELISA in NCI-H358 cells; settings: NCI-H358 cells, 2 hours of treatment, pERK normalized by Janus Green B, read-out: p-ERK IC50 (NCI H358)
Method: The cells were treated with or without the compound of the present disclosure (dimethyl sulfoxide, DMSO), and the final concentration of DMSO was guaranteed to be 0.5%. After 2 hours of treatment, the medium was removed and 4% paraformaldehyde (Beyotime catalog number E672002-0100) was added and left to stand for 20 minutes. Cells were washed with PBS after fixation and incubated with precooled methanol for 10 min to permeabilize the cell membrane.
The level of phosphorylated ERK was detected using an enzyme linked immunosorbent assay (ELISA) method. […] The plates were washed 5 times with PBS containing 0.05% Tween 20. […] The reaction was stopped by adding 1 mol/L H2SO4, and the OD value was read at 450 nm by EnVision (PerkinElmer).
The total number of cells per well was detected by Janus Green B staining method. After detecting the level of phosphorylated ERK, the 96-well plate was washed with PBS until colorless, and 0.1% Janus Green B (Abcam catalogue number ab111622) was added to incubate for 10 minutes. After the 96-well plate was washed with double distilled water, 0.1 mol/L HCl was added, then the mixture was shaked and incubated for 10 minutes. The OD value was read at 595 nm by EnVision (PerkinElmer).
The signal of pERK (Thr202/Tyr204) was normalized by the signal value of Janus Green B, and the inhibition percentage after drug treatment relative to DMSO reference was calculated. The percentage values were fitted by a four-parameter dose-response curve and generated IC50 values.

Row | Compound | IC50 [3] [nM] | further results
1 | C=CC(=O)N1C[C@@H]2C(=O)Nc3c(c4cc(F)c(-c5c(O)cccc5F)c(F)c4n(-c4c(C)ccnc4C(C)C)c3=O)N2C[C@H]1C [Compound 22A] | 16 | GI50 [1]: 24 nM; GI50 [2]: 10 nM
2 | C=CC(=O)N1C[C@@H]2COc3c(c4cc(F)c(-c5c(C)ccc6[nH]ncc56)nc4n(-c4ccccc4C(C)C)c3=O)N2C[C@H]1C (single isomer, unassigned) [Compound 13B] | 5670 | 
3 | C=CC(=O)N1C[C@@H]2CN(C)c3c(c4cc(F)c(-c5c(O)cccc5F)c(F)c4n(-c4c(C)ccnc4C(C)C)c3=O)N2C[C@H]1C (atropisomer, axis not shown) [Compound 16B-1] | 648 | 
4 | C=CC(=O)N1C[C@@H]2C(=O)N(C3CN(C)C3)c3c(c4cc(F)c(-c5c(F)cccc5OC)c(F)c4n(-c4c(C)ccnc4C(C)C)c3=O)N2C[C@H]1C [Compound 43] |  | IC50 ([3]; Homo sapiens, NCI-H358, 2 h): 1920 nM
5 | C=CC(=O)N1C[C@@H]2COc3c(c4cc(F)c(-c5c(O)cccc5F)c(F)c4n(-c4c(C)ccnc4C(C)C)c3=O)N2C[C@H]1C [Compound 3A] | 474 | 
6 | C=CC(=O)N1C[C@@H]2CN(CC(=O)O)c3c(c4cc(F)c(-c5c(O)cccc5F)c(F)c4n(-c4c(C)ccnc4C(C)C)c3=O)N2C[C@H]1C [Compound 39A-1] | 1640 | 
7 | C=CC(=O)N1C[C@@H]2COc3c(c4cc(F)c(-c5c(F)cccc5OC)nc4n(-c4c(C)ccnc4C(C)C)c3=O)N2C[C@H]1C (single isomer, unassigned) [Compound 6B] | 691 | 
8 | C=CC(=O)N1C[C@@H]2C(=O)N(C)c3c(c4cc(Cl)c(-c5c(O)cccc5F)c(F)c4n(-c4c(C)ccnc4C(C)C)c3=O)N2C[C@H]1C [Compound 23B-2] | 749 | 
9 | C=CC(=O)N1C[C@@H]2C(=O)N(C)c3c(c4cc(F)c(-c5c(O)cccc5F)c(F)c4n(-c4c(C)ccnc4C(C)C)c3=O)N2C[C@H]1C [Compound 21B] | 306 | 
10 | C=CC(=O)N1C[C@@H]2COc3c(c4cc(F)c(-c5c(O)cccc5F)c(F)c4n(-c4c(C)ccnc4C(C)C)c3=O)N2C[C@H]1C [Compound 3A-2] | 5240 | 
11 | C=CC(=O)N1C[C@@H]2C(=O)N(C)c3c(c4cc(F)c(-c5c(O)cccc5F)c(F)c4n(-c4c(C)ccnc4C(C)C)c3=O)N2C[C@H]1C [Compound 21B-1] | 2240 | 
12 | C=CC(=O)N1CCN2c3c(c(=O)n(-c4ccccc4C(C)C)c4nc(-c5c(O)cccc5F)c(F)cc34)OC[C@H]2C1 [Compound 12A] |  | IC50 ([3]; Homo sapiens, NCI-H358, 2 h): 604 nM
13 | C=CC(=O)N1C[C@@H]2C(=O)N(C)c3c(c4cc(Cl)c(-c5c(O)cccc5F)c(F)c4n(-c4c(C)ccnc4C(C)C)c3=O)N2C[C@H]1C [Compound 23B-1] | 150 | 
14 | C=CC(=O)N1C[C@@H]2C(=O)N(C)c3c(c4cc(F)c(-c5c(C)ccc6[nH]nc(C7CC7)c56)c(F)c4n(-c4c(C)ccnc4C(C)C)c3=O)N2C[C@H]1C [Compound 47A] |  | IC50 ([3]; Homo sapiens, NCI-H358, 2 h): 1560 nM
15 | C=CC(=O)N1C[C@@H]2C(=O)N(CCN(C)C)c3c(c4cc(Cl)c(-c5c(O)cccc5F)c(F)c4n(-c4c(CC)ccnc4C(C)C)c3=O)N2C[C@H]1C (atropisomer, axis not shown) [Compound 54A-2] | 844 | 
16 | C=CC(=O)N1C[C@@H]2CN(CC(=O)O)c3c(c4cc(F)c(-c5c(O)cccc5F)c(F)c4n(-c4c(C)ccnc4C(C)C)c3=O)N2C[C@H]1C [Compound 39A] | 798 | 
